How the values were obtained:
Body weight in MNX rats = format: in vivo, rat; conditions: all rats; over 21 days
Experimental: (§1) NBQX treated rats received two intra-articular injections, the first immediately after MNX surgery and the second 7 days later. A single dose of Temgesic was also given sub-cutaneously to relieve pain following surgery. […] Vehicle control rats received injections of sterile H2O delivered in the same way at the same times. Over 21 days, weight, knee swelling (digital calliper) and incapacitance (Linton incapacitance meter) were measured on days 0, 1, 2, 3, 7, 8, 10, 14 and 21. The Linton incapacitance meter measures the weight exerted on each back leg whilst the rat is stationary in a clear Perspex box. The difference in weight bearing can then be calculated between the left and right leg. All rats were euthanized on day 21 and the knee joints fixed in formalin for histology.

IL-6 mRNA = IL-6 mRNA expression in AIA rat joint tissues (QRT-PCR); format: in vivo; conditions: day 21
AIA rats [1] = test: KA1/AMPAR2 immunohistochemistry and TRAP staining in AIA rats; conditions: day 21
Experimental: (§4) For AIA, after a 7 day settling in period, animals received a subcutaneous injection of methylated bovine serum albumin (mBSA; 0.5 mg/ml; Sigma, Poole, UK) emulsified with an equal volume of Freund's complete adjuvant (CFA; 0.25 mg Mycobacterium tuberculosis: Sigma) into the right flank. A second subcutaneous injection of the emulsion was administered in the left flank 7 days later. Fourteen days following the second injection (day 0), an intra-articular injection of mBSA (0.5 mg in 50 μl saline) was administered into the right knee of 15 rats to serve as the AIA group. Another 15 rats received an intra-articular injection of 0.5 mg mBSA mixed with 2.5 mM NBQX (Tocris, Bristol, UK) in 50 μl saline, into the right knee. These rats served as the NBQX treatment group. […] Six control rats received no subcutaneous or intra-articular injections.
GluRs and transporters were localised in sequential paraffin knee sections (9 AIA, 9 NBQX and 6 control knees) using antibodies to kainate (anti-KA1, 1:400 dilution), AMPA receptor-2 (anti-ionotropic glutamate receptor-2, 1:100, both Abcam, Cambridge, UK), GLAST (GLAST11-S, 1:100) and EAAC1 (EAAC11-A, 1:200, both Alpha Diagnostic International, Texas, USA). AMPAR2 was also localised in 6 MNX and 6 naïve rats. Sections, processed as for histology, were deparaffinised and rehydrated prior to antigen retrieval using 1 mg/mitrypsin (Sigma) for 20 minutes at 37° C. Endogenous peroxidase activity was blocked with 0.3% hydrogen peroxide (Sigma) for 30 minutes followed by 3 washes in 1×TBS/0.1% tween for 15 minutes each. Sections were treated with 10% normal blocking serum (Sigma) for 1 hour prior to overnight incubation at 4° C. with primary antibody, followed by 3 washes in 1×TBS/0.1% tween. […] ABC horseradish peroxidase kit following the manufacturer's instructions (Vector Laboratories, Peterborough, UK). Sections were developed using nickel enhanced diaminobenzidine (DAB) (Vector Laboratories), counterstained in Mayer's haematoxylin (Fisher Scientific), rinsed in tap water, dehydrated, cleared in xylene and mounted. […]

[2] = Body weight in ligament rupture mouse model; format: in vivo; conditions: all mice; over 21 days
Experimental: Using our non-invasive ligament rupture model, following trauma mice were given an intra-articular injection of 20 mM NBQX in the right knee. The left knee served as unloaded controls. Sterile water injections were performed in some mice to act as vehicle control. Knee swelling was measured using digital callipers on days 0, 1, 2, 3, 7, 16 and 21. […] Lameness scores were not severe enough to warrant extra doses of pain relief.

MNX rats [3] = test: Incapacitance testing in MNX rats; format: in vivo, rat; conditions: day 8
Experimental: (§2) We have established the meniscal transection (MNX) rat model of osteoarthritis. Surgery resection was performed wherein cutting through and removing part of the medial collateral ligament and then transecting the medial meniscus was performed under Home Office License. Surgery was performed under anaesthesia. Animals were then allowed to recover from surgery.
(§3) Using the MNX model, we tested the effects of NBQX injected directly into the knee joint. There were 5 groups of male Sprague-Dawley rats, 3 animals per group as follows: • MNX+sterile H2O (vehicle control) • MNX+2.5 mM NBQX • MNX+12.5 mM NBQX • MNX+25 mM NBQX • Naïve
as §1

AIA rats [4] = test: Knee swelling in AIA rats; format: in vivo, rat
Experimental: Diameters of the inflamed (right) and non-inflamed (left) knees of all the rats were measured using a Mitutoyo® digital calliper (RS Components Ltd, Northants, UK) to quantify swelling. […] Three readings were taken for each knee and the difference between the means of the inflamed and non-inflamed knee gave a value in millimeters of knee swelling.

RA FLS = conditions: cited from earlier work
human RA FLS = conditions: cited from earlier work
MNX rats [5] = test: Knee swelling in meniscal transection (MNX) rats; format: in vivo, rat
Experimental: as §2, §3, §1

AIA rats [6] = test: Footprint analysis in AIA rats
Experimental: as §4
Hindlimb walking patterns were evaluated by footprint analysis on days 0, 1, 2, 3, 4, 7, 9, 14 and 21 as previously described (4). […] Three sets of at least two stepping cycles per side (six sequential steps) were performed for each rat per experimental day. Three parameters were measured: limb rotation (angle between a line through the centre of the foot pad parallel to the walking direction and a line through the third digit), stride length (distance between feet of the same side) and stance width (distance between feet of the right and left stepping cycle).

AMPA receptor = conditions: cited from earlier work
AIA rats [7] = test: Histological disease assessment in AIA rats (synovial inflammation, joint degradation); format: in vivo, rat; conditions: day 21
Experimental: On day 21, 9 AIA, 9 NBQX and 3 control rats were culled and their knees dissected intact and fixed in 10% neutral buffered formalin solution (Sigma) for 2 days. Knees were decalcified in 10% EDTA (Fisher Scientific, Loughborough, UK) at 4° C., embedded in paraffin wax, sectioned (6 μm) in the coronal plane and stained with haematoxylin and eosin for synovial inflammation or toluidine blue/safranin-O for cartilage and bone scoring or retained for immunohistochemical analysis. Synovial inflammation and joint degradation were scored by two independent observers blinded to treatment group. An established scoring system was used to score synovial inflammation (3). Briefly, 3 parameters were scored: synovial hyperplasia (pannus formation) (0-3), synovial infiltrate (0-5) and synovial exudate (0-3), to give a maximum score of 11 per joint. Joint degradation was scored using a modified Mankin score (Table 1) consisting of: cartilage surface integrity (0-6), chondrocyte appearance (0-2), proteoglycan loss (0-4), tidemark integrity (0-2) and bone changes (0-3) to give a maximum score of 17 per joint quadrant (medial and lateral femoral condyles (MFC and LFC respectively) and medial and lateral tibial plateaux (MTP and LTP respectively)) totaling to a maximum of 68 per knee. In each knee, two representative sections ˜500 μm apart were scored for joint degradation.

ligament ruptured mice = test: Knee swelling in non-invasive ligament rupture mouse model; format: in vivo; conditions: 20 mM intra-articular
Experimental: We have established a non-invasive mouse model of post-traumatic knee joint degeneration due to ligament rupture.
Using custom built cups to hold the knee in flexion, loads (12N, 4 Hz, sine wave; ElectroForce® 3200, BOSE, USA) were applied to the right knees of 12-week-old C57Bl6 mice (n=10). […] Left knees served as unloaded controls. Immediately following ligament rupture, mice were given an intra-articular injection of 20 mM NBQX in to the right knee, whilst the control mice received an intra-articular injection of sterile H2O (vehicle control). A single dose of Temgesic was also given sub-cutaneously to relieve pain for up to 12 hours following loading.
Lameness scores were carried out every day for the first week and then every few days the following weeks to assess the welfare of the animals and the potential need for pain relief. Knee swelling was measured using digital callipers on days 0, 1, 2, 3, 7, 16 and 21. All mice were euthanized on day 21 and the knee joints fixed in formalin for histology.

Cathepsin K mRNA = test: Bone phenotype mRNA expression in AIA rat knees; format: in vivo; conditions: day 21
AIA rats [8] = test: Macroscopic knee analysis (X-ray, MRI) in AIA rats; format: in vivo, rat; conditions: day 21
Source text: Prior to decalcification, whole rat knees were examined by radiography and MRI. Radiographs of both the inflamed and non-inflamed knees of 9 AIA, 9 NBQX and 3 control rats were obtained using a Kodak FX Pro in-vivo Imaging System (Advanced Molecular Vision, Grantham, UK), and the images analysed using Kodak Molecular Imaging software version 5 with the following parameters: 30 second exposure time at 35 kV, 4.96 F-stop, 71.4 mm FOV, 9.8 mm focal plane.
Both the inflamed and non-inflamed knee joints of 6 AIA and 6 NBQX rats were imaged using a high spatial resolution MRI scanning protocol at the Experimental MRI Centre (EMRIC, School of Biosciences, Cardiff University). Each pair of knees was embedded in 1% agarose (Promega) inside a 50 ml falcon tube prior to scanning. MRI was performed using a Bruker Biospin Advance 9.4T ([…]) MRI system equipped with a transmit-receive quadrature coil. The scanning acquisition parameters were as follows: echo time […], repetition time 24 msec, field of view […]; matrix 640×280×280; and flip angle 180°. Images were subsequently viewed and analysed in ParaVision 5.1 (Bruker) and Analyze 10.0 software Mayo Biomedical Imaging Resource, Rochester, Minn., USA).

Kainate receptor = conditions: cited from earlier work

For `NS(=O)(=O)c1cccc2c1c([N+](=O)[O-])cc1[nH]c(=O)c(=O)[nH]c12` [NBQX, 2,3-dihydroxy-6-nitro-7-sulfamoyl-benzo[f]quinoxaline-2,3-dione], the weight (Body weight in MNX rats) was “consistently put on weight”, the “IL-6 relative expression levels in meniscus vs AIA rats” value (IL-6 mRNA; inflamed knee, P<0.05) was “significantly lower” and the “IL-6 relative expression levels in meniscus vs AIA rats” value (IL-6 mRNA; left non-inflamed knee) was “not significant”. For the same compound, the GluR positive cells (AIA rats [1]) was “apparent reduction”, the “TRAP positive osteoclasts vs AIA” value (AIA rats [1]) was “less abundant” and the “extent of bone remodeling” value (AIA rats [1]) was “reduced”. The weight [2] was “consistently put on weight”, the “difference in weight bearing left/right leg of vehicle control MNX rats compared to NBQX treated rats” value (MNX rats [3]; 2.5 mM, P<0.01) was “significantly greater difference in weight bearing” and the “difference in weight bearing left/right leg of vehicle control MNX rats compared to NBQX treated rats” value (MNX rats [3]; 12.5 mM, P<0.05) was “significantly greater difference in weight bearing”. For the same compound, the “difference in weight bearing left/right leg of vehicle control MNX rats compared to NBQX treated rats” value (MNX rats [3]; 25 mM, P<0.01) was “significantly greater difference in weight bearing”, the mean knee swelling (AIA rats [4]; day 1, 2.5 mM intra-articular, right knee) was 2.95 mm and the “reduction in peak knee swelling” value (AIA rats [4]; day 1, vs AIA rats, 2.5 mM intra-articular) was 33%. For the same compound, the “knee swelling vs AIA rats” value (AIA rats [4]; every time point throughout 21 days, P<0.001) was “significant reduction”, the “inhibition of IL-6 release increased by high glutamate concentrations” value (RA FLS) was “inhibited” and the “MMP-2 expression by FLS” value (human RA FLS) was “did not affect”. For the same compound, the “knee swelling of vehicle control MNX rats compared to NBQX treated MNX rats” value (MNX rats [5]; day 8, 25 mM intra-articular, P<0.05) was “significantly greater knee swelling”, the “knee swelling of vehicle control MNX rats compared to NBQX treated MNX rats” value (MNX rats [5]; day 14, 2.5 mM intra-articular, P<0.01) was “significantly greater knee swelling” and the “knee swelling of vehicle control MNX rats compared to NBQX treated MNX rats” value (MNX rats [5]; day 14, 12.5 mM intra-articular, P<0.05) was “significantly greater knee swelling”. For the same compound, the “stance width vs control rats” value (AIA rats [6]; P<0.05) was “significantly greater”, the “stride length vs control rats” value (AIA rats [6]; P<0.05) was “significantly shorter” and the stride length (AIA rats [6]; by day 14) was “returned to normal”. For the same compound, the stance width (AIA rats [6]; by day 21) was “normal”, the “weight bearing (footprints)” value (AIA rats [6]; days 1 and 2) was “able to weight bear” and the “degree of foot rotation vs control rats” value (AIA rats [6]; right limb, P<0.05) was “significantly greater”. The AMPA receptor antagonist (AMPA receptor) was “Yes”, the “synovial hyperplasia, exudate, infiltrate and articular surface degradation vs AIA rats” value (AIA rats [7]) was “significantly less severe” and the “average joint degeneration severity score vs AIA rats” value (AIA rats [7]; P<0.001) was “significantly reduced”. The “bone changes score vs AIA” value (AIA rats [7]; P<0.001) was “largest difference”, the “synovial inflammation score vs AIA rats” value (AIA rats [7]; P<0.001) was “significantly lower” and the “joint degradation in the MFC vs AIA rats” value (AIA rats [7]; P<0.01) was “significantly less joint degradation”. The “proteoglycan loss score vs AIA” value (AIA rats [7]; P<0.01) was “significantly lowered”, the “tidemark integrity score vs AIA” value (AIA rats [7]; P<0.01) was “significantly lowered” and the “chondrocyte appearance score vs AIA” value (AIA rats [7]; P<0.05) was “significantly lowered”. The “joint degradation in the LFC vs AIA rats” value (AIA rats [7]; P<0.05) was “significantly less joint degradation”, the “knee swelling vs vehicle controls” value (ligament ruptured mice; day 7, P<0.05) was “significantly less knee swelling” and the “knee swelling vs vehicle controls” value (ligament ruptured mice; day 21, P<0.001) was “significantly less knee swelling”. For the same compound, the “knee swelling compared to day 0 measurements” value (ligament ruptured mice; from day 2) was “no significant difference”, the “cathepsin K mRNA expression, inflamed knees vs AIA inflamed knees” value (Cathepsin K mRNA) was “significant reduction” and the “joint erosion in MRI” value (AIA rats [8]) was “greatly reduced”. For the same compound, the “joint erosions in X-rays” value (AIA rats [8]) was “Fewer joint erosions”, the “synovial inflammation in MRI” value (AIA rats [8]) was “greatly reduced” and the Kainate receptor antagonist (Kainate receptor) was “Yes”.
